According to PubChem BioAssay (NCI):
Values joined by “and” are separate entries in the source; they are usually repeats but may differ in a detail not shown here. Equal entries are not always repeated.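 These data come from cells grown in 96-well plates and exposed to compound for 48 hours at five concentrations. GI50 marks 50% less growth. The concentration for full growth arrest is given as TGI.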

Tests used:
Assay in all cases: inhibition of tumour cell growth, NCI panel, 48 h
UACC-257 melanoma = test system: UACC-257 melanoma
SK-MEL-5 melanoma = test system: SK-MEL-5 melanoma
A498 renal = test system: A498 renal
IGROV1 ovarian = test system: IGROV1 ovarian
SF-295 CNS = test system: SF-295 CNS
HL-60(TB) leukemia = test system: HL-60(TB) leukemia
EKVX NSCLC = test system: EKVX NSCLC

| Compound | GI50 (UACC-257 melanoma) | TGI (UACC-257 melanoma) | GI50 (SK-MEL-5 melanoma) | TGI (SK-MEL-5 melanoma) | GI50 (A498 renal) | TGI (A498 renal) | GI50 (IGROV1 ovarian) | TGI (IGROV1 ovarian) | GI50 (SF-295 CNS) | TGI (SF-295 CNS) | GI50 (HL-60(TB) leukemia) | TGI (HL-60(TB) leukemia) | GI50 (EKVX NSCLC) | TGI (EKVX NSCLC) |
| --- | --- | --- | --- | --- | --- | --- | --- | --- | --- | --- | --- | --- | --- | --- |
| CO[C@H](C(=O)[C@@H](O)[C@@H](C)O)[C@@H]1Cc2cc3cc(O[C@H]4C[C@@H](O[C@H]5C[C@@H](O)[C@H](O)C(C)O5)[C@H](O)C(C)O4)c(C)c(O)c3c(O)c2C(=O)[C@H]1O[C@H]1C[C@@H](O[C@H]2C[C@@H](O[C@H]3C[C@@H](OC)[C@H](O)C(C)O3)[C@@H](O)C(C)O2)C(O)(O)C(C)O1 (some centres undefined) | 0.0371 µM | 0.511 µM | 0.0208 µM | 0.467 µM | 0.0198 µM | 0.115 µM | 0.116 µM | > 25 µM | 0.0601 µM | > 25 µM | 2.94 µM | > 25 µM | 0.318 µM | > 25 µM |
| CC(=O)C1=C(O)C=C2Oc3c(C(=O)/C=C/c4cc(C(F)(F)F)cc(C(F)(F)F)c4)c(O)c(C)c(O)c3[C@]2(C)C1=O | 0.728 µM | 4.54 µM | 0.444 µM | 1.27 µM | 0.457 µM | 1.42 µM | 0.671 µM | 8.83 µM | 0.627 µM | 4.76 µM | 0.401 µM | 1.14 µM | 0.462 µM | 6.44 µM |
| CNC(=O)c1cc(COc2nnc(Nc3ccc(Cl)cc3)c3ccoc23)ccn1 | 6.3 µM and > 10 µM | 35.6 µM and > 10 µM | 7.66 µM and 7.85 µM | > 47.1 µM | 6.65 µM and > 10 µM | 21.9 µM and > 10 µM | 11.4 µM and > 10 µM | 27.4 µM and > 10 µM | 6.39 µM and > 10 µM | 24.9 µM and > 10 µM | > 100 µM | > 100 µM | 10.6 µM and > 10 µM | 28.3 µM and > 10 µM |
| COc1ccc(C#Cc2ccccc2C#CCCCCO)cc1 | 19.5 µM | 35.8 µM | 25.2 µM | 57.6 µM | 24.1 µM | 66.4 µM | 18.8 µM | 34.1 µM | 18.7 µM | 34.6 µM | 23.7 µM | 44.7 µM | 23.6 µM | 54 µM |
| C(=Nc1ccccc1)C1CCCC[N-]1.C(=Nc1ccccc1)C1CCCC[N-]1.[Cu+2].[O-][Cl+3]([O-])([O-])O (centres undefined) | > 37.7 µM | > 55.2 µM | 8.64 µM | 27.7 µM | 18.1 µM | 44.9 µM | 14 µM | 47.8 µM | 3.13 µM | 18.8 µM | 6.26 µM | 31.5 µM | 19 µM | 58.1 µM |
| COc1cccc2c1C(=O)c1c(O)c3c(c(O)c1C2=O)CC(O)(C(C)=O)CC3OC1CC(N)C(O)C(C)O1 (centres undefined) | 0.116 µg/mL | 2.06 µg/mL | 0.0193 µg/mL | 0.0525 µg/mL | 0.0558 µg/mL | 0.39 µg/mL |  | 1.68 µg/mL | 0.0286 µg/mL | 0.168 µg/mL |  | 0.0356 µg/mL | 0.191 µg/mL | 2.66 µg/mL |
| Cc1nc2ccc(CN(C)c3ccc(C(=O)N[C@@H](CCC(=O)O)C(=O)O)s3)cc2c(=O)[nH]1 |  | > 100 µM | 0.173 µM | > 100 µM | > 100 µM | > 100 µM |  | > 100 µM |  | > 100 µM |  | > 100 µM |  | > 100 µM |
| O=C(c1ccc2ccccc2c1O)N1CCCCC1 |  | > 100 µM |  | > 100 µM |  | > 100 µM |  | > 100 µM |  | > 100 µM |  | > 100 µM |  | > 100 µM |
| Cc1ccc(C(=O)N(CCCN)[C@@H](c2nc3cc(Cl)ccc3c(=O)n2Cc2ccccc2)C(C)C)cc1 |  | 1.86 µM and 2.79 µM | < 0.01 µM | 1.35 µM and 1.46 µM | < 0.01 µM | 1.77 µM and 0.816 µM | < 0.0336 µM | 2.09 µM | < 0.01 µM |  | < 0.01 µM | 0.482 µM | < 0.01 µM | 2.22 µM and 1.64 µM |
| Cc1ccc(NCCCN2CCN(CCCNc3ccc(C)c4sc5ccccc5c(=O)c34)CC2)c2c(=O)c3ccccc3sc12 |  | > 100 µM |  | > 100 µM |  | > 100 µM |  | > 100 µM |  | > 100 µM |  | > 100 µM |  | > 100 µM |
| Cc1nc2sccn2c1/C=C1/C(=O)Nc2ccccc21 | > 100 µM | > 100 µM | 3.37 µM | > 62.9 µM | 1.68 µM | 9.72 µM | 2.27 µM | > 25.2 µM | 3.01 µM | > 26.5 µM | 2.1 µM | 7.25 µM | 27.6 µM | > 100 µM |
| O=[N+]([O-])c1ccc(Nc2ccccc2-c2ccccc2)c2nonc12 | 12.3 µM | 79.1 µM | 6 µM | 18.8 µM | 14.8 µM | 41.6 µM | 12 µM | > 63.6 µM | 11.7 µM | 29.7 µM | 17.8 µM | 51.1 µM | 15.5 µM | 64.1 µM |
| O=C(Nc1ccc(Cl)cc1Cl)c1ccc(NC2=C(Cl)C(=O)N(Cc3ccccc3)C2=O)cc1 | 26.2 µM | 71.8 µM | 20.6 µM | 65.8 µM | 31.3 µM | 79.7 µM | 12.2 µM | > 100 µM | 19.5 µM | 38.1 µM | 2.5 µM | 9.01 µM | 21.7 µM | 46.1 µM |
| CCCN(CCC)CCCNCc1cc(I)cc(C)c1O | 11.5 µM | 27.7 µM | 6.83 µM | 19.3 µM | 11.6 µM | 23.8 µM | 15.6 µM | 29.6 µM | 13.7 µM | 27 µM | 13.8 µM | 29.8 µM | 15.8 µM | 33.7 µM |
| CC(C)[C@](O)(c1ccc2cc(OC(F)F)c(OC(F)F)cc2c1)c1cn[nH]n1 | 21.5 µM and 21.8 µM | 47.7 µM and 46.1 µM | 17.1 µM and 16.9 µM | 30.9 µM and 30.7 µM | 14.4 µM and 15.4 µM | 28.2 µM and 29.2 µM | 24.6 µM and 17.8 µM | 70.7 µM and 44.5 µM | 15.8 µM and 14 µM | 33.4 µM and 29 µM | 26.8 µM and 25 µM | 68.5 µM and 75.7 µM | 14 µM and 13.6 µM | 44.8 µM and 39.9 µM |
| COc1ccc(-c2[nH]ncc2-c2cc3c(c(OC)c2)OCC(=O)N3)cc1 | 3.23 µM | > 72.4 µM | 0.595 µM | 12.8 µM | 0.17 µM | 0.646 µM | 0.674 µM | > 100 µM | 0.398 µM | 15.2 µM | 0.352 µM | 2.06 µM | 0.675 µM | > 33.7 µM |
| CC(C)(C)OC(=O)NCCNC1=CC(=O)c2nc3ccccc3c3ccnc1c23 | 23.5 µM | 75.5 µM | 11.1 µM | 23.1 µM | 0.101 µM | 29.2 µM | 24.6 µM | 77.3 µM | 18.2 µM | 40 µM | 12.2 µM | > 100 µM | 41.4 µM | > 100 µM |
| Cc1ccccc1NC(=S)Nc1ccccn1 | > 100 µM | > 100 µM | 47.2 µM | > 100 µM | > 100 µM | > 100 µM | > 100 µM | > 100 µM | > 100 µM | > 100 µM | > 100 µM | > 100 µM | 49 µM | > 100 µM |
| COC1=CC(c2ccc[nH]2)=N/C1=C\c1[nH]c(C)c(C(=O)OCc2ccccc2)c1C | 0.316 µM | 1.83 µM | 0.0476 µM | 0.177 µM | 0.169 µM | 1.02 µM | 0.286 µM | 9 µM | 0.17 µM | 0.827 µM | 0.328 µM | 20.2 µM | 0.206 µM | 3.64 µM |
| C[n+]1c(/C=C\C=C\N2CCCCC2)sc2ccccc21 | 0.278 µM | 2.18 µM | 0.276 µM | 1.5 µM | 0.293 µM | 9.04 µM | 0.84 µM | 33.8 µM | 0.385 µM | 2.36 µM | 0.166 µM | 0.737 µM | 0.255 µM | 10.8 µM |
| COc1cccc(C2CC(c3cc(OC)c(OC)c(OC)c3)=NN2)c1 (centres undefined) | 12.7 µM | 36.4 µM | 11.8 µM | 24 µM | 12.9 µM | 38.6 µM | 2.02 µM | 13.1 µM | 9.61 µM | 38.3 µM | 4.08 µM | 31.7 µM | 14.5 µM | 46.1 µM |
| COc1cc2c(cc1OC)C13CCN4C=C5CCOC6CC(=O)N2C1C6C5CC43 (centres undefined) |  | > 100 µM |  | > 100 µM |  | > 100 µM |  | > 100 µM |  | > 100 µM |  | > 100 µM |  | > 100 µM |
| COc1ccc2c(c1)C(=O)c1c-2n(CCCN)c(=O)c2ccccc12 | 0.383 µM | 2.07 µM | 0.0586 µM | 0.477 µM | 0.836 µM | 2.21 µM | < 0.0138 µM | 0.689 µM | 0.015 µM | 0.657 µM | < 0.01 µM |  | 0.196 µM | 1.83 µM |
| COC(=O)[C@@H](NC(=O)NC(=O)NC(=O)CI)C(C)C | 13.6 µM | 27.8 µM | 17.4 µM | 31.6 µM | 16.7 µM | 30.9 µM | 3.87 µM | 13.9 µM | 17.9 µM | 40.6 µM | 1.7 µM | 3.86 µM | 17.2 µM | 31.4 µM |
| CN1CCN(c2ccc(C(=O)Nc3n[nH]c4ccc(Cc5cc(F)cc(F)c5)cc34)c(NC3CCOCC3)c2)CC1 | 3.72 µM and 1.42 µM | > 10 µM and 2.82 µM | 1.62 µM and 1.56 µM | 3.01 µM and 2.98 µM | 1.77 µM and 0.846 µM | 6.85 µM and 2.24 µM | 0.641 µM and 1.3 µM | 3 µM and 2.72 µM | 3.94 µM and 1.45 µM | > 10 µM and 3.11 µM | 1.83 µM and 1.66 µM | 4.19 µM and 3.38 µM | 3.07 µM | > 10 µM |
